# Measurements: PubChem BioAssay AID220 (DTP/NCI, 2004)
# Where “and” joins values, the source holds several entries; their conditions need not be identical. Equal entries are not always repeated. Results filed as inconclusive are left out.
# Tested on: CD8F1 mice, subcutaneous mammary adenocarcinoma, T/C%
# Test: NCI In Vivo Anticancer Drug Screen. Data for tumor model Mammary Adenocarcinoma CD8F1 (subcutaneous) in CD8F1
# Conditions: higher = larger tumour
# Outline: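 Antitumor activity is assessed in transplantable-tumor mice by comparing the treated group with a vehicle-treated control group. Survival or tumor size serves as the measure, reported as T divided by C.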
smiles,measurement,setting,value
COc1cc(O)c2c(O)c3c(c4c2c1[C@]1(C4)C(C)=CCCC1(C)C)[C@H](O)[C@@]1(O)CC(=O)C(C(N)=O)=C(O)[C@@]1(O)C3=O,T/C,"endpoint: median tumor weight (est.), dose: 6.25 mg/kg/injection, schedule: Q07DX005 (ip), vehicle: saline with Tween-80",56 % of control
same,T/C,"endpoint: median tumor weight (est.), dose: 6.25 mg/kg/injection, schedule: Q07DX005 (ip), vehicle: saline",47 % of control
same,T/C,"endpoint: median tumor weight (est.), dose: 12.5 mg/kg/injection, schedule: Q07DX005 (ip), vehicle: saline with Tween-80",92 % of control
same,T/C,"endpoint: median tumor weight (est.), dose: 12.5 mg/kg/injection, schedule: Q07DX005 (ip), vehicle: saline",58 % of control
same,T/C,"endpoint: median tumor weight (est.), dose: 25.0 mg/kg/injection, schedule: Q07DX005 (ip), vehicle: saline with Tween-80",95 % of control
same,T/C,"endpoint: median tumor weight (est.), dose: 25.0 mg/kg/injection, schedule: Q07DX005 (ip), vehicle: saline",87 % of control
same,T/C,"endpoint: median tumor weight (est.), dose: 50.0 mg/kg/injection, schedule: Q07DX005 (ip), vehicle: saline with Tween-80",89 % of control
same,T/C,"endpoint: median tumor weight (est.), dose: 50.0 mg/kg/injection, schedule: Q07DX005 (ip), vehicle: saline",81 % of control
same,T/C,"endpoint: median tumor weight (est.), dose: 100.0 mg/kg/injection, schedule: Q07DX005 (ip), vehicle: saline",37 % of control
O=C1NCCN1c1ncc([N+](=O)[O-])s1,T/C,"endpoint: mean tumor weight, dose: 100.0 mg/kg/injection, schedule: Q07DX005 (ip), vehicle: saline",121 % of control
same,T/C,"endpoint: mean tumor weight, dose: 200.0 mg/kg/injection, schedule: Q07DX005 (ip), vehicle: saline",89 % of control
same,T/C,"endpoint: mean tumor weight, dose: 400.0 mg/kg/injection, schedule: Q07DX005 (ip), vehicle: saline",101 % of control
CN(C1=NS(=O)(=O)N=C(N(C)c2ccccc2)O1)c1ccccc1,T/C,"endpoint: median tumor weight (est.), dose: 12.5 mg/kg/injection, schedule: Q07DX005 (ip), vehicle: Klucel (hydroxypropylcellulose) (HPC)",86 % of control
same,T/C,"endpoint: median tumor weight (est.), dose: 25.0 mg/kg/injection, schedule: Q07DX005 (ip), vehicle: Klucel (hydroxypropylcellulose) (HPC)",88 % of control
same,T/C,"endpoint: median tumor weight (est.), dose: 50.0 mg/kg/injection, schedule: Q07DX005 (ip), vehicle: Klucel (hydroxypropylcellulose) (HPC)",90 % of control
same,T/C,"endpoint: median tumor weight (est.), dose: 100.0 mg/kg/injection, schedule: Q07DX005 (ip), vehicle: Klucel (hydroxypropylcellulose) (HPC)",123 % of control and 115 % of control
same,T/C,"endpoint: median tumor weight (est.), dose: 200.0 mg/kg/injection, schedule: Q07DX005 (ip), vehicle: Klucel (hydroxypropylcellulose) (HPC)",86 % of control and 111 % of control
same,T/C,"endpoint: median tumor weight (est.), dose: 800.0 mg/kg/injection, schedule: Q07DX005 (ip), vehicle: Klucel (hydroxypropylcellulose) (HPC)",85 % of control
same,T/C,"endpoint: median tumor weight change, dose: 50.0 mg/kg/injection, schedule: Q01DX001 (ip), vehicle: Klucel (hydroxypropylcellulose) (HPC)",76 % of control
same,T/C,"endpoint: median tumor weight change, dose: 100.0 mg/kg/injection, schedule: Q01DX001 (ip), vehicle: Klucel (hydroxypropylcellulose) (HPC)",71 % of control and 75 % of control and 91 % of control
same,T/C,"endpoint: median tumor weight change, dose: 800.0 mg/kg/injection, schedule: Q01DX001 (ip), vehicle: Klucel (hydroxypropylcellulose) (HPC)",47 % of control and 64 % of control and 69 % of control
same,T/C,"endpoint: median tumor weight change, dose: 1600.0 mg/kg/injection, schedule: Q01DX001 (ip), vehicle: Klucel (hydroxypropylcellulose) (HPC)",70 % of control
Nc1ncnc2c1ncn2C1OC(CO)C(O)C1O (stereo not drawn),T/C,"endpoint: median tumor weight (est.), dose: 16.0 mg/kg/injection, schedule: Q07DX005 (ip), vehicle: Klucel (hydroxypropylcellulose) (HPC)",103 % of control
same,T/C,"endpoint: median tumor weight (est.), dose: 37.5 mg/kg/injection, schedule: Q07DX005 (ip), vehicle: saline",47 % of control
same,T/C,"endpoint: median tumor weight (est.), dose: 75.0 mg/kg/injection, schedule: Q07DX005 (ip), vehicle: saline",33 % of control
same,T/C,"endpoint: median tumor weight (est.), dose: 128.0 mg/kg/injection, schedule: Q07DX005 (ip), vehicle: Klucel (hydroxypropylcellulose) (HPC)",83 % of control and 99 % of control
same,T/C,"endpoint: median tumor weight (est.), dose: 150.0 mg/kg/injection, schedule: Q07DX005 (ip), vehicle: saline",47 % of control
same,T/C,"endpoint: median tumor weight (est.), dose: 300.0 mg/kg/injection, schedule: Q07DX005 (ip), vehicle: saline",88 % of control
same,T/C,"endpoint: median tumor weight (est.), dose: 600.0 mg/kg/injection, schedule: Q07DX005 (ip), vehicle: saline",71 % of control
same,T/C,"endpoint: median tumor weight (est.), dose: 1200.0 mg/kg/injection, schedule: Q07DX005 (ip), vehicle: saline",60 % of control
Cc1cc(N/N=C/c2ccccn2)nc2ccccc12,T/C,"endpoint: median tumor weight change, dose: 31.25 mg/kg/injection, schedule: Q01DX001 (ip), vehicle: Klucel (hydroxypropylcellulose) (HPC)",92 % of control
same,T/C,"endpoint: median tumor weight change, dose: 62.5 mg/kg/injection, schedule: Q01DX001 (ip), vehicle: Klucel (hydroxypropylcellulose) (HPC)",100 % of control
same,T/C,"endpoint: median tumor weight change, dose: 125.0 mg/kg/injection, schedule: Q01DX001 (ip), vehicle: Klucel (hydroxypropylcellulose) (HPC)",96 % of control
same,T/C,"endpoint: median tumor weight change, dose: 250.0 mg/kg/injection, schedule: Q01DX001 (ip), vehicle: Klucel (hydroxypropylcellulose) (HPC)",59 % of control
O=C(O)CC(=O)O.[NH-]C1CCCCC1[NH-].[Pt+2] (stereo not drawn),T/C,"endpoint: median tumor weight (est.), dose: 20.0 mg/kg/injection, schedule: Q07DX005 (ip), vehicle: dextrose",14 % of control
same,T/C,"endpoint: median tumor weight (est.), dose: 40.0 mg/kg/injection, schedule: Q07DX005 (ip), vehicle: dextrose",38 % of control
same,T/C,"endpoint: median tumor weight (est.), dose: 80.0 mg/kg/injection, schedule: Q07DX005 (ip), vehicle: dextrose",67 % of control
CC1(C)COCN1COC1CCCCC1,T/C,"endpoint: median tumor weight change, dose: 125.0 mg/kg/injection, schedule: Q01DX001 (ip), vehicle: saline with Tween-80",79 % of control
